# Source: ChEMBL document CHEMBL6109143, “Adamantane-Quinoxalone Hybrids: Precision Chemotypes and Their Molecular Mechanisms in Acute Myeloid Leukemia” (J Med Chem, 2025)
# Several values for one entry are separate records, joined by “and”; a condition that tells them apart may be missing. Equal values may be shown once. Activity calls are given as the source filed them. The rule behind the calls is not given here.
# What was measured:
# Kasumi 1 [1] = test: Cytotoxicity against human Kasumi 1 cells assessed as reduction in cell viability at 50 uM incubated for 24 hrs by MTT assay relative to control; format: functional
# Kasumi 1 [2] = test: Cytotoxicity against human Kasumi 1 cells harboring chromosomal translocation(8;21) assessed as reduction in cell viability incubated for 24 hrs by MTT assay; format: functional, cell-based; conditions: Kasumi 1, 24 h
# THP-1 = test: Cytotoxicity against human THP-1 cells harboring chromosomal translocation(9;11) assessed as reduction in cell viability incubated for 24 hrs by MTT assay; format: functional, cell-based; conditions: THP-1, 24 h
# Kasumi 1 [3] = test: Effect on glycolysis pathway related protein expression in human Kasumi 1 cells by GSEA; format: functional, cell-based
# Kasumi 1 [4] = test: Downregulation of HMMR gene expression in human Kasumi 1 cells at IC50 concentration incubated for 24 hrs by RNA sequencing analysis; format: functional, cell-based
# Kasumi 1 [5] = test: Downregulation of UGFR1 gene expression in human Kasumi 1 cells at IC50 concentration incubated for 24 hrs by RNA sequencing analysis; format: functional, cell-based
# A549 = test: Cytotoxicity against human A549 cells assessed as cell viability at 1 to 50 uM incubated for 24 hrs by MTT assay; format: functional, cell-based; conditions: dose 1-50 µM
# Kasumi 1 [6] = test: Induction of apoptosis in human Kasumi 1 cells assessed as late apoptotic cells at IC50 concentration incubated for 24 hrs by Annexin V/PI staining based flow cytometric analysis (reference value: 2.07 %); format: functional
# Kasumi 1 [7] = test: Downregulation of PIM1 gene expression in human Kasumi 1 cells at IC50 concentration incubated for 24 hrs by RNA sequencing analysis; format: functional, cell-based
# Kasumi 1 [8] = test: Downregulation of TNF-alpha signaling related genes in human Kasumi 1 cells at IC50 concentration incubated for 24 hrs by RNA sequencing analysis; format: functional, cell-based
# Kasumi 1 [9] = test: Effect on mTORC1 signaling related protein expression in human Kasumi 1 cells by GSEA; format: functional, cell-based
# Kasumi 1 [10] = test: Downregulation of G2M checkpoint related genes in human Kasumi 1 cells at IC50 concentration incubated for 24 hrs by RNA sequencing analysis; format: functional, cell-based
# Kasumi 1 [11] = test: Upregulation of CSF3R gene expression in human Kasumi 1 cells at IC50 concentration incubated for 24 hrs by RNA sequencing analysis; format: functional, cell-based
# Kasumi 1 [12] = test: Upregulation of DACH1 gene expression in human Kasumi 1 cells at IC50 concentration incubated for 24 hrs by RNA sequencing analysis; format: functional, cell-based
# Kasumi 1 [13] = test: Downregulation of E2F target related genes in human Kasumi 1 cells at IC50 concentration incubated for 24 hrs by RNA sequencing analysis; format: functional, cell-based
# Kasumi 1 [14] = test: Downregulation of CDK1 protein expression in human Kasumi 1 cells at IC50 concentration incubated for 24 hrs by LC-MS/MS analysis; format: functional, cell-based
# Kasumi 1 [15] = test: Upregulation of NR5A1 gene expression in human Kasumi 1 cells at IC50 concentration incubated for 24 hrs by RNA sequencing analysis; format: functional, cell-based
# [16] = Cytotoxicity against human Oral epithelial cells assessed as cell viability incubated for 24 hrs by MTT assay; format: toxicity, cell-based
# Kasumi 1 [17] = test: Induction of cell cycle arrest in human Kasumi 1 cells assessed as increase in cells at G2 phase at IC50 concentration incubated for 24 hrs by PI staining based flow cytometric analysis (reference value: 6.65 %); format: functional
# Kasumi 1 [18] = test: Downregulation of KRAS signaling related genes in human Kasumi 1 cells at IC50 concentration incubated for 24 hrs by RNA sequencing analysis; format: functional, cell-based
# Kasumi 1 [19] = test: Effect on oxidative phosphorylation related protein expression in human Kasumi 1 cells by GSEA; format: functional, cell-based
# Kasumi 1 [20] = test: Downregulation of MYCN gene expression in human Kasumi 1 cells at IC50 concentration incubated for 24 hrs by RNA sequencing analysis; format: functional, cell-based
# CAL-27 = test: Cytotoxicity against human CAL-27 cells assessed as cell viability at 1 to 50 uM incubated for 24 hrs by MTT assay; format: functional, cell-based; conditions: dose 1-50 µM
# Kasumi 1 [21] = test: Effect on MYC target related protein expression in human Kasumi 1 cells by GSEA; format: functional, cell-based
# Kasumi 1 [22] = test: Induction of cell cycle arrest in human Kasumi 1 cells assessed as increase in cells at G2/M phase at IC50 concentration incubated for 24 hrs by PI staining based flow cytometric analysis; format: functional
# MCF-10A = test: Cytotoxicity against human MCF-10A cells assessed as cell viability incubated for 24 hrs by MTT assay; format: toxicity, cell-based
# Kasumi 1 [23] = test: Induction of apoptosis in human Kasumi 1 cells assessed as early apoptotic cells at IC50 concentration incubated for 24 hrs by Annexin V/PI staining based flow cytometric analysis (reference value: 2.38 %); format: functional
# Kasumi 1 [24] = test: Downregulation of KRAS signaling pathway related genes in human Kasumi 1 cells at IC50 concentration incubated for 24 hrs by RNA sequencing analysis; format: functional, cell-based
# Kasumi 1 [25] = test: Induction of cell cycle arrest in human Kasumi 1 cells assessed as increase in cells at G1 phase at IC50 concentration incubated for 24 hrs by PI staining based flow cytometric analysis (reference value: 66.25 %); format: functional
# Kasumi 1 [26] = test: Effect on hypoxia pathway related protein expression in human Kasumi 1 cells by GSEA; format: functional, cell-based
# Kasumi 1 [27] = test: Upregulation of KLF2 gene expression in human Kasumi 1 cells at IC50 concentration incubated for 24 hrs by RNA sequencing analysis; format: functional, cell-based
# Kasumi 1 [28] = test: Induction of apoptosis in human Kasumi 1 cells assessed as viable cells at IC50 concentration incubated for 24 hrs by Annexin V/PI staining based flow cytometric analysis (reference value: 95.43 %); format: functional
# Kasumi 1 [29] = test: Downregulation of BCL6 gene expression in human Kasumi 1 cells at IC50 concentration incubated for 24 hrs by RNA sequencing analysis; format: functional, cell-based
# Kasumi 1 [30] = test: Downregulation of CD109 gene expression in human Kasumi 1 cells at IC50 concentration incubated for 24 hrs by RNA sequencing analysis; format: functional, cell-based
# Kasumi 1 [31] = test: Upregulation of interferon-gamma response related genes in human Kasumi 1 cells at IC50 concentration incubated for 24 hrs by RNA sequencing analysis; format: functional, cell-based
# ARPE-19 = test: Cytotoxicity against human ARPE-19 cells assessed as reduction in cell viability incubated for 24 hrs by MTT assay; format: toxicity, cell-based; conditions: arpe-19, 24 h
# Kasumi 1 [32] = test: Effect on adipogenesis pathway related protein expression in human Kasumi 1 cells by GSEA; format: functional, cell-based
# Kasumi 1 [33] = test: Induction of cell cycle arrest in human Kasumi 1 cells assessed as increase in cells at S phase at IC50 concentration incubated for 24 hrs by PI staining based flow cytometric analysis (reference value: 27.09 %); format: functional
# Kasumi 1 [34] = test: Induction of apoptosis in human Kasumi 1 cells assessed as necrotic apoptotic cells at IC50 concentration incubated for 24 hrs by Annexin V/PI staining based flow cytometric analysis (reference value: 0.12 %); format: functional
# Kasumi 1 [35] = test: Effect on E2F target related protein expression in human Kasumi 1 cells by GSEA; format: functional, cell-based
# Kasumi 1 [36] = test: Downregulation of estrogen pathway related genes in human Kasumi 1 cells at IC50 concentration incubated for 24 hrs by RNA sequencing analysis; format: functional, cell-based
# Kasumi 1 [37] = test: Downregulation of MELK protein expression in human Kasumi 1 cells at IC50 concentration incubated for 24 hrs by LC-MS/MS analysis; format: functional, cell-based
# MDA-MB-231 = test: Cytotoxicity against human MDA-MB-231 cells assessed as cell viability at 1 to 50 uM incubated for 24 hrs by MTT assay; format: functional, cell-based; conditions: dose 1-50 µM
# Kasumi 1 [38] = test: Upregulation of interferon-alpha response related genes in human Kasumi 1 cells at IC50 concentration incubated for 24 hrs by RNA sequencing analysis; format: functional, cell-based
# Kasumi 1 [39] = test: Induction of cell cycle arrest in human Kasumi 1 cells assessed as decrease in cells at S phase at IC50 concentration incubated for 24 hrs by PI staining based flow cytometric analysis; format: functional
smiles,measurement,setting,value
Cc1ccc(CN2C(=O)C(C34CC5CC(CC(C5)C3)C4)Nc3ccccc32)cc1 (configuration not stated),Activity,Kasumi 1 [1],>30%
C=CCCCCN1C(=O)C(C23CC4CC(CC(C4)C2)C3)Nc2ccccc21 (configuration not stated),Activity,Kasumi 1 [1],>30%
CC(C)CCCC(C)CCN1C(=O)C(C23CC4CC(CC(C4)C2)C3)Nc2ccccc21 (configuration not stated),Activity,Kasumi 1 [1],>30%
O=C1C(C23CC4CC(CC(C4)C2)C3)Nc2ccccc2N1Cc1ccc(Br)cc1 (configuration not stated),Activity,Kasumi 1 [1],>30%
O=C1C(C23CC4CC(CC(C4)C2)C3)Nc2ccccc2N1c1ccc2ccccc2c1 (configuration not stated),Activity,Kasumi 1 [1],>30%
Cc1ccc(CN2C(=O)C(C34CC5CC(CC(C5)C3)C4)Nc3cc(-c4ccc5c(c4)NC(C46CC7CC(CC(C7)C4)C6)C(=O)N5Cc4ccc(C)cc4)ccc32)cc1 (configuration not stated),Activity,Kasumi 1 [1],>30%
CCN1C(=O)C(C23CC4CC(CC(C4)C2)C3)Nc2ccccc21 (configuration not stated),Activity,Kasumi 1 [1],>30%
O=C1C(C23CC4CC(CC(C4)C2)C3)Nc2cc3ccccc3cc2N1Cc1ccccc1 (configuration not stated),Activity,Kasumi 1 [1],>30%
CCCCCCCCCCCCN1C(=O)C(C23CC4CC(CC(C4)C2)C3)Nc2ccccc21 (configuration not stated),Activity,Kasumi 1 [1],>30%
CSc1ccc(CN2C(=O)C(C34CC5CC(CC(C5)C3)C4)Nc3ccccc32)cc1 (configuration not stated),Activity,Kasumi 1 [1],>30%
CN1C(=O)C(C23CC4CC(CC(C4)C2)C3)Nc2ccccc21 (configuration not stated),Activity,Kasumi 1 [1],>30%
O=C1C(C23CC4CC(CC(C4)C2)C3)Nc2ccccc2N1c1ccc(OC(F)(F)F)cc1 (configuration not stated),Activity,Kasumi 1 [1],>30%
O=C1C(C23CC4CC(CC(C4)C2)C3)Nc2ccccc2N1Cc1ccc(F)cc1 (configuration not stated),Activity,Kasumi 1 [1],>30%
Cc1ccccc1CN1C(=O)C(C23CC4CC(CC(C4)C2)C3)Nc2ccccc21 (configuration not stated),Activity,Kasumi 1 [1],>30%
O=C1C(C23CC4CC(CC(C4)C2)C3)Nc2ccccc2N1Cc1ccccc1 (configuration not stated),Activity,Kasumi 1 [1],>30%
CC(C)CCN1C(=O)C(C23CC4CC(CC(C4)C2)C3)Nc2ccccc21 (configuration not stated),Activity,Kasumi 1 [1],>30%
O=C1C(C23CC4CC(CC(C4)C2)C3)Nc2cc(Cl)c(Cl)cc2N1Cc1ccccc1 (configuration not stated),Activity,Kasumi 1 [1],>30%
O=C1C(C23CC4CC(CC(C4)C2)C3)Nc2ccccc2N1c1ccc(-c2ccccc2)cc1 (configuration not stated),Activity,Kasumi 1 [1],>30%
Cc1cc2c(cc1C)N(Cc1ccccc1)C(=O)C(C13CC4CC(CC(C4)C1)C3)N2 (configuration not stated),Activity,Kasumi 1 [1],>30%
O=C1C(C23CC4CC(CC(C4)C2)C3)Nc2ccccc2N1Cc1cccc(-c2ccccc2)c1 (configuration not stated),Activity,Kasumi 1 [1],>30%
C=CCN1C(=O)C(C23CC4CC(CC(C4)C2)C3)Nc2ccccc21 (configuration not stated),Activity,Kasumi 1 [1],<30%
same,IC50,Kasumi 1 [2],37.5 µM
same,IC50,THP-1,> 50 µM
O=C1C(C23CC4CC(CC(C4)C2)C3)Nc2ccccc2N1c1ccccc1 (configuration not stated),Activity,Kasumi 1 [1],<30%
same,Activity,Kasumi 1 [3],Active
same,Activity,Kasumi 1 [4],Active
same,Activity,Kasumi 1 [5],Active
same,Activity,A549,inactive
same,Activity,Kasumi 1 [6],5.37%
same,Activity,Kasumi 1 [7],Active
same,Activity,Kasumi 1 [8],Active
same,Activity,Kasumi 1 [9],Active
same,Activity,Kasumi 1 [10],Active
same,Activity,Kasumi 1 [11],Active
same,Activity,Kasumi 1 [12],Active
same,Activity,Kasumi 1 [13],Active
same,Activity,Kasumi 1 [14],Active
same,Activity,Kasumi 1 [15],Active
same,IC50,Kasumi 1 [2],2.09 µM
same,Activity,[16],Non-toxic
same,Activity,Kasumi 1 [17],12.31%
same,Activity,Kasumi 1 [18],Active
same,Activity,Kasumi 1 [19],Active
same,Activity,Kasumi 1 [20],Active
same,Activity,CAL-27,inactive
same,Activity,Kasumi 1 [21],Active
same,Activity,Kasumi 1 [22],Active
same,Activity,MCF-10A,Non-toxic
same,Activity,Kasumi 1 [23],10.74%
same,IC50,THP-1,40.9 µM
same,Activity,Kasumi 1 [24],Active
same,Activity,Kasumi 1 [25],68.99%
same,Activity,Kasumi 1 [26],Active
same,Activity,Kasumi 1 [27],Active
same,Activity,Kasumi 1 [28],83.88%
same,Activity,Kasumi 1 [29],Active
same,Activity,Kasumi 1 [30],Active
same,Activity,Kasumi 1 [31],Active
same,Activity,ARPE-19,Non-toxic
same,Activity,Kasumi 1 [32],Active
same,Activity,Kasumi 1 [33],18.69%
same,Activity,Kasumi 1 [34],0.02%
same,Activity,Kasumi 1 [35],Active
same,Activity,Kasumi 1 [36],Active
same,Activity,Kasumi 1 [37],Active
same,Activity,MDA-MB-231,inactive
same,Activity,Kasumi 1 [38],Active
same,Activity,Kasumi 1 [39],Active
CCCCCCN1C(=O)C(C23CC4CC(CC(C4)C2)C3)Nc2ccccc21 (configuration not stated),Activity,Kasumi 1 [1],>30%
O=C1C(C23CC4CC(CC(C4)C2)C3)Nc2ccccc2N1CC1CC1 (configuration not stated),Activity,"Kasumi 1 [1]; 24 h, 50 µM",<30% and >30%
same,IC50,Kasumi 1 [2],47 µM
same,IC50,THP-1,> 50 µM
